Assay results taken from paper PMC4457826 (PLoS Pathogens, 2015).

Legend:
USP7-NTD = experiment: Fluorescence polarization, USP7-NTD; assay type: binding, human; conditions: FITC peptide 40 nM, protein up to 200 μM
Procedure: (§1) USP7 proteins were titrated (0 to 200 μM) with N-terminally labeled FITC-ICP0, FITC-GMPS or FITC-UHRF1 peptides (synthesized by CanPeptide, 40 nM) in 0.01% Triton X-100, 150 mM NaCl, 20 mM Tris pH 7.5. Polarized emission of FITC-ICP0 or FITC-GMPS or FITC-UHRF1 was measured with a Synergy H4 Hybrid Multi-Mode Microplate Reader (BioTek) with the excitation wavelength set at 485 nm and the emission wavelength set at 528 nm. The competition binding assay was performed with a fixed USP7-CTD concentration (8 μM), 40nM FITC-UHRF1 and increasing concentrations of unlabeled ICP0 (0 to 2500 μM). The polarization data were plotted and analyzed using GraphPad Prism version 5.0 to calculate dissociation (KD) and inhibition (Ki) constants. These assays were repeated at least 3 times and used to calculate the average and standard deviation.

USP7 Ubl345 = experiment: Fluorescence polarization, Ubl345; assay type: binding, human; conditions: FITC peptide 40 nM, protein up to 200 μM
Procedure: as §1

USP7-CTD = target: T1, USP7-CTD (Homo sapiens, UniProt Q93009); experiment: Competition binding assay (fluorescence polarization), FITC-UHRF1 displacement; conditions: USP7-CTD 8 μM, FITC-UHRF1 40 nM, unlabeled ICP0 0 to 2500 μM
T1 construct: USP7-CTD (535–1102); His tag (inferred from nickel-NTA purification; vector p15TV-L); made in house; host or cells: E. coli BL21(DE3)mgk
T1 sequence (Q93009 535-1102): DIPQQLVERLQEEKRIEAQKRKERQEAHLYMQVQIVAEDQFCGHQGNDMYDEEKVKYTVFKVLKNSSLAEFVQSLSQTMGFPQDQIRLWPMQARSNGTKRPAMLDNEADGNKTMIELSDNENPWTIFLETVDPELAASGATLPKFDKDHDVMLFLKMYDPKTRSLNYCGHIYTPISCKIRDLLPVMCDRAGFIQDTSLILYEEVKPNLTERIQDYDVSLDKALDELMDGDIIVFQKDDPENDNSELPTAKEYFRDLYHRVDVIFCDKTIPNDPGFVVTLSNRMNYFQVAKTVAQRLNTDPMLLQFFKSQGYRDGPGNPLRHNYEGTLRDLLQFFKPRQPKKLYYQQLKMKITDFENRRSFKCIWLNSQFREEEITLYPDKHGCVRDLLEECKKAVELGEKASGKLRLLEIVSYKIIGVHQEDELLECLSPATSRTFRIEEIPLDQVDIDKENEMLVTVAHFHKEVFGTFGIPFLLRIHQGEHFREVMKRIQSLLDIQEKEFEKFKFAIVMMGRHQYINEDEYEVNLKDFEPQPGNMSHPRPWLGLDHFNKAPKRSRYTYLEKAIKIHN
Procedure: Given the importance of the KxxxK motif in ICP0 and GMPS for USP7-CTD binding, we examined the UHRF1 sequence for such a motif and identified ^642[…]^649 (Fig 4A). […] The saturation curve is shown in S3 Fig. A competitive binding assay was used to establish whether the UHRF1 and ICP0 peptides were competing for the same binding site on Ubl2. This assay was performed by measuring the fluorescence polarization with increasing amounts of unlabeled ICP0 while keeping both USP7-CTD and FITC-UHRF1 constant. […] This competition was confirmed by the competition binding experiment shown in S3 Fig.
as §1, with “These assays were repeated at least 3 times and used to calculate the average and standard deviation.” left out

[1] = system: myc-tagged D762R/D764R (MRGR) USP7; experiment: Co-immunoprecipitation with myc-tagged D762R/D764R (MRGR) USP7 from 293T cells; assay type: cell-based, human; conditions: anti-myc IP, Western blot, Fig 5
Procedure: (§2) 293T cells were grown in Dulbecco’s modified Eagle’s medium (DMEM) (Gibco) with 10% fetal calf serum. 293T cells at 70% confluence in a 10-cm-diameter dish were transfected with 10 μg pCANmycUSP7 expressing WT USP7 or D762R/D764R (MRGR) USP7 or with pcDNA3.1 (negative control), in each case using 20 μl PolyJet (SignaGen Laboratories) transfection reagent. Cells were transferred to a 15-cm-diameter dish 24 h post-transfection and harvested 48 h post-transfection. For experiments on USP7-ICP0 interactions, 293T cells were co-transfected with 1 μg pCANmycUSP7 expressing WT or D762R/D764R (MRGR) USP7 and either 1 μg pCI-110 ICP0 or 1 μg pcDNA3.1. For controls lacking USP7, 1 μg pCI-110 ICP0 was co-transfected with 1 μg pcDNA3.1. In each case 4 μl PolyJet (SignaGen Laboratories) transfection reagent was used.
Protein samples were subjected to SDS-PAGE and transferred to nitrocellulose. Membranes were blocked in 5% skim milk in Tris-buffered saline with 1% Tween (TBS-T) and then incubated with antibodies against ICP0 (H1A027 from Virusys Corporation; 1:5000 dilution), myc (sc-40 from Santa Cruz Biotechnology; 1:5000 dilution), NP95/UHRF1 (A301-470A from Bethyl Laboratories; 1:1000 dilution), GMPS (rabbit serum raised against full-length GMPS [17]; 1:5000 dilution) and actin (MA5-15739 from Pierce; 1:20,000 dilution). After washing, blots were probed with goat anti-mouse or goat anti-rabbit peroxidase (Santa Cruz Biotechnology; 1:5000 dilution) and developed using chemiluminescence reagents (Santa Cruz biotechnology).
293T cells transfected as described above were washed in phosphate-buffered saline (PBS) and lysed on ice for 45 min in a 4x volume of RIPA buffer (50 mM Tris-HCl [pH 8], 150 mM NaCl, 0.1% sodium deoxycholate, 0.5% NP-40) with complete protease inhibitors (Sigma P8340), followed by centrifugation. 1 mg of each clarified lysate was incubated with 1 μg of anti-myc antibody for 1h, followed by incubation with 30 μl of A/G PLUS agarose resin (Santa Cruz Biotechnology) for 2 h at 4°C with end-over-end rotation. The resin was harvested by centrifugation, washed in RIPA buffer, and then boiled in SDS loading buffer. Immunoprecipitated proteins were separated by SDS-PAGE and analyzed by Western blotting, as described above.

293T cells = experiment: ICP0 input levels with and without USP7, Western blot, 293T cells; assay type: cell-based; conditions: input levels of ICP0 with and without USP7, Fig 5A
Procedure: as §2
Protein samples were subjected to SDS-PAGE and transferred to nitrocellulose. […]
293T cells transfected as described above were washed in phosphate-buffered saline (PBS) and lysed on ice for 45 min in a 4x volume of RIPA buffer (50 mM Tris-HCl [pH 8], 150 mM NaCl, 0.1% sodium deoxycholate, 0.5% NP-40) with complete protease inhibitors (Sigma P8340), followed by centrifugation. […] Immunoprecipitated proteins were separated by SDS-PAGE and analyzed by Western blotting, as described above.

| Compound | polarization with USP7-NTD (USP7-NTD) | polarization with Ubl345 (USP7 Ubl345) | competition with UHRF1 peptide for binding to Ubl2 (USP7-CTD) | recovery with D762R/D764R USP7 (co-IP), in words [1] | effect of WT USP7 and D762R/D764R mutant on ICP0 level (293T cells) |
| --- | --- | --- | --- | --- | --- |
| C[C@H](NC(=O)[C@H](CS)NC(=O)[C@H](CCCCN)NC(=O)[C@H](CCCNC(=N)N)NC(=O)[C@@H]1CCCN1C(=O)CNC(=O)[C@H](CCCNC(=N)N)NC(=O)[C@@H]1CCCN1)C(=O)N[C@@H](CCCNC(=N)N)C(=O)N[C@@H](CCCCN)C(=O)N[C@H](C(=O)N[C@@H](CCCNC(=N)N)C(=O)N[C@@H](Cc1c[nH]cn1)C(=O)O)[C@@H](C)O [ICP0 peptide] | did not show any polarization | did not show any polarization | readily competes with the UHRF1 peptide for binding to Ubl2 |  |  |
| ICP0: Herpes simplex virus-1 immediate-early protein ICP0, expressed in 293T cells |  |  |  | decreased (2-fold in multiple experiments) but not abrogated | stabilizing effect on ICP0 |
